Patent publication US20240308978A1, “COMPOUNDS AND COMPOSITIONS FOR TREATING CONDITIONS ASSOCIATED WITH STING ACTIVITY” (IFM Due, Inc., priority 2021, published 2024)

target: T1, hSTING (Homo sapiens, UniProt Q86WV6, G230A/H232R/R293Q/R71H); assay: STING reporter assay (luciferase) in THP1-Dual KO-IFNAR2 cells stimulated with 2′3′cGAMP; format: cell-based; conditions: 15 μM 2′3′cGAMP transfected, 24 h, class symbols
T1 construct: host or cells: THP1-Dual KO-IFNAR2 cells
Procedure: STING pathway activation by the compounds described herein was measured using THP1-Dual™ cells (KO-IFNAR2).
THP1-Dual™ KO-IFNAR2 Cells (obtained from invivogen) were maintained in RPMI, 10% FCS, 5 ml P/S, 2 mM L-glut, 10 mM Hepes, and 1 mM sodium pyruvate. Compounds were spotted in empty 384 well tissue culture plates (Greiner 781182) by Echo for a final concentration of 0.0017-100 μM. Cells were plated into the TC plates at 40 μL per well, 2×10E6 cells/mL. For activation with STING ligand, 2′3′cGAMP (MW 718.38, obtained from Invivogen), was prepared in Optimem media.
The following solutions were prepared for each 1×384 plate: • Solution A: 2 mL Optimem with one of the following stimuli: • 60 μL of 10 mM 2′3′cGAMP→150 μM stock • Solution B: 2 mL Optimem with 60 μL Lipofectamine 2000→Incubate 5 min at RT
2 mL of solution A and 2 ml Solution B was mixed and incubated for 20 min at room temperature (RT). 20 μL of transfection solution (A+B) was added on top of the plated cells, with a final 2′3′cGAMP concentration of 15 μM. The plates were then centrifuged immediately at 340 g for 1 minute, after which they were incubated at 37° C., 5% CO2,>98% humidity for 24 h. Luciferase reporter activity was then measured. EC50 values were calculated by using standard methods known in the art.
Luciferase reporter assay: 10 μL of supernatant from the assay was transferred to white 384-plate with flat bottom and squared wells. One pouch of QUANTI-Luc™ Plus was dissolved in 25 mL of water. 100 μL of QLC Stabilizer per 25 mL of QUANTI-Luc™ Plus solution was added. 50 μL of QUANTI-Luc™ Plus/QLC solution per well was then added. Luminescence was measured on a Platereader (e.g., Spectramax I3X (Molecular Devices GF3637001)).
Luciferase reporter activity was then measured. EC50 values were calculated by using standard methods known in the art.

T1 sequence (Q86WV6 whole entry R71H/G230A/H232R/R293Q): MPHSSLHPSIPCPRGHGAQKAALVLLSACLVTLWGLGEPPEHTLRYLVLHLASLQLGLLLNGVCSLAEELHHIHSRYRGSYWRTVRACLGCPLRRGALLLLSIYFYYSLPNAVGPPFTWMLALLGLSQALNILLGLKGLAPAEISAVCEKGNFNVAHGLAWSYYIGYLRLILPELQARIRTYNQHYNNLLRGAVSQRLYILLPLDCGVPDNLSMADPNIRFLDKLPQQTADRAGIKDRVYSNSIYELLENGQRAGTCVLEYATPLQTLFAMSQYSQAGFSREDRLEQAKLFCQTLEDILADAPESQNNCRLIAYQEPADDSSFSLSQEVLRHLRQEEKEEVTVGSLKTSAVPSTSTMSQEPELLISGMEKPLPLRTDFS

Row | EC50 [µM] | Structure (SMILES)
1 | 1 to 5 | O=C(Nc1c[nH]c2cc(F)c(F)cc12)NC1CC(OC2CCN(CC(F)(F)F)CC2)C1 (stereo not drawn) [Compound 104, 1-(5,6-difluoro-1H-indol-3-yl)-3-(3-((1-(2,2,2-trifluoroethyl)piperidin-4-yl)oxy)cyclobutyl)urea]
2 | 0.2 to 1 | O=C(Nc1c[nH]c2ccc(F)cc12)N[C@H]1CC[C@@H](Oc2ccc(C(F)(F)F)cn2)CC1 [Compound 109, 1-(5-fluoro-1H-indol-3-yl)-3-((1s,4s)-4-((5-(trifluoromethyl)pyridin-2-yl)oxy)cyclohexyl)urea]
3 | 5 to 100 | O=C(Nc1c[nH]c2ccc(Cl)cc12)N[C@H]1CC[C@H](N2CCC(F)(F)CC2)CC1 [Compound 103, 1-(5-chloro-1H-indol-3-yl)-3-((1r,4r)-4-(4,4-difluoropiperidin-1-yl)cyclohexyl)urea]
4 | 5 to 100 | O=C(Nc1c[nH]c2ccc(Cl)cc12)N[C@H]1CC[C@@H](N2CCC(F)(F)CC2)CC1 [Compound 102, 1-(5-chloro-1H-indol-3-yl)-3-((1s,4s)-4-(4,4-difluoropiperidin-1-yl)cyclohexyl)urea]
5 | 0.2 to 1 | O=C(Nc1c[nH]c2ccc(Cl)cc12)N[C@H]1CC[C@H](Oc2ccc(C(F)(F)F)cn2)CC1 [Compound 112, 1-(5-chloro-1H-indol-3-yl)-3-((1r,4r)-4-((5-(trifluoromethyl)pyridin-2-yl)oxy)cyclohexyl)urea]
6 | 0.2 to 1 | O=C(Nc1c[nH]c2ccc(Cl)cc12)N[C@H]1C[C@H](Oc2ccc(C(F)(F)F)cn2)C1 [Compound 110, 1-(5-chloro-1H-indol-3-yl)-3-((1r,3r)-3-((5-(trifluoromethyl)pyridin-2-yl)oxy)cyclobutyl)urea]
7 | 0.2 to 1 | O=C(Nc1c[nH]c2ccc(F)cc12)N[C@H]1CC[C@H](Oc2ccc(C(F)(F)F)cn2)CC1 [Compound 108, 1-(5-fluoro-1H-indol-3-yl)-3-((1r,4r)-4-((5-(trifluoromethyl)pyridin-2-yl)oxy)cyclohexyl)urea]
8 | 0.2 to 1 | O=C(Nc1c[nH]c2ccc(Cl)cc12)N[C@H]1C[C@@H](Oc2ccc(C(F)(F)F)cn2)C1 [Compound 111, 1-(5-chloro-1H-indol-3-yl)-3-((1s,3s)-3-((5-(trifluoromethyl)pyridin-2-yl)oxy)cyclobutyl)urea]
9 | 0.2 to 1 | O=C(Nc1c[nH]c2ccc(Cl)cc12)NC1CCN(c2ccc(C(F)(F)F)cn2)CC1 [Compound 105, 1-(5-chloro-1H-indol-3-yl)-3-(1-(5-(trifluoromethyl)pyridin-2-yl)piperidin-4-yl)urea]
10 | 0.2 to 1 | O=C(Nc1c[nH]c2ccc(Cl)cc12)N[C@H]1CC[C@@H](Oc2ccc(C(F)(F)F)cn2)CC1 [Compound 113, 1-(5-chloro-1H-indol-3-yl)-3-((1s,4s)-4-((5-(trifluoromethyl)pyridin-2-yl)oxy)cyclohexyl)urea]
11 | 1 to 5 | O=C(Nc1c[nH]c2ncc(F)cc12)N[C@H]1CC[C@@H](Oc2ccc(C(F)(F)F)cn2)CC1 [Compound 115, 1-(5-fluoro-1H-pyrrolo[2,3-b]pyridin-3-yl)-3-((1s,4s)-4-((5-(trifluoromethyl)pyridin-2-yl)oxy)cyclohexyl)urea]
12 | 1 to 5 | O=C(Nc1c[nH]c2ccc(Cl)cc12)NC1CCN(Cc2ccc(C(F)(F)F)cn2)CC1 [Compound 107, 1-(5-chloro-1H-indol-3-yl)-3-(1-((5-(trifluoromethyl)pyridin-2-yl)methyl)piperidin-4-yl)urea]

Row | Structure (SMILES) | EC50 [µM]
13 | O=C(Nc1c[nH]c2cc(F)c(F)cc12)N[C@H]1CC[C@H](OC2CC(F)(F)C2)CC1 [Compound 101, 1-(5,6-difluoro-1H-indol-3-yl)-3-((1r,4r)-4-(3,3-difluorocyclobutoxy)cyclohexyl)urea] | 1 to 5

same assay, conditions: 15 μM 2′3′cGAMP transfected, 24 h, numeric bound given instead of a class symbol

Row | EC50 [µM] | Structure (SMILES)
14 | > 30 | O=C(Nc1c[nH]c2ncc(F)cc12)N[C@H]1CC[C@H](Oc2ccc(C(F)(F)F)cn2)CC1 [Compound 116, 1-(5-fluoro-1H-pyrrolo[2,3-b]pyridin-3-yl)-3-((1r,4r)-4-((5-(trifluoromethyl)pyridin-2-yl)oxy)cyclohexyl)urea]
15 | > 30 | COCCN1CCC(O[C@H]2CC[C@H](NC(=O)Nc3c[nH]c4ccc(Cl)cc34)CC2)CC1 [Compound 106, 1-(5-chloro-1H-indol-3-yl)-3-((1r,4r)-4-((1-(2-methoxyethyl)piperidin-4-yl)oxy)cyclohexyl)urea]
